Article PMC3610371, “Subamolide B Isolated from Medicinal Plant Cinnamomum subavenium Induces Cytotoxicity in Human Cutaneous Squamous Cell Carcinoma Cells through Mitochondrial and CHOP-Dependent Cell Death Pathways” (Evidence-based Complementary and Alternative Medicine : eCAM, 2013)
Values joined by “and” are separate entries in the source; they are usually repeats but may differ in a detail not shown here. Equal entries are not always repeated.

Tests used:
[1] = test system: SCC12 cells; experiment: SCC12 cell viability after 24 h treatment (Supplementary Figure 3); format: cell-based; conditions: Homo sapiens
Protocol: The effect of subamolide B on cell viability was mostly evaluated using CellTiter 96 AQueous Non-Radioactive Cell Proliferation Assay (MTS assay) kit (Promega, Madison, WI, USA) as previously described. Alternatively, propidium iodide (PI) exclusion assay was employed to determine cell viability. In brief, 4 × 10^5 SCC12 cells were seeded onto 6-well dishes and were subjected to 48 h treatment with subamolide B. Cells were then trypsinized, collected by centrifugation, and washed twice with PBS. Subsequently, cells were stained with 10 μg/ml of PI in PBS for 15 min in the dark, followed by flow cytometry analysis to determine the levels of PI incorporation.
Supplementary Figure Legends (Yang et al.) […]
Supplementary Figure 3. SCC12 cells were resistant to imiquimod-induced cytotoxicity.
SCC12 cells were treated with increasing doses of subamolide B (0~20 µM) (A) or
imiquimod (0~50 µg/ml) (B) for 24 h, and the viability of imiquimod-treated cells was
evaluated thereafter. It is noted that 20 µM (6.897 µg/ml) of subamolide B reduced the
viability of SCC12 cells to 50.47±5.89% compared to the drug-untreated control, whereas
65.00±4.32% of SCC12 cells were still viable after treatment with 50 µg/ml of imiquimod.

[2] = test system: A375 (melanoma) cells; experiment: Cell viability determination via MTS assay, A375; format: cell-based; conditions: Homo sapiens, A-375; A375, 48 h treatment; read-out: IC50 (reduce cell viability by 50%)
Protocol: (§1) The human cutaneous squamous cell carcinoma cell line SCC12 (kindly provided by Prof. Xiaoqi Wang, Northwestern University, USA) was grown in DMEM/F-12 (1 : 1) medium. The human malignant melanoma cell line A375 (ATCC number: CRL-1619), human epidermoid carcinoma cell line A-431 (ATCC number: CRL-1555), and HEK293T cells (ATCC number: CRL-11268) were grown in DMEM medium, whereas the human basal cell carcinoma cell line BCC-1/KMC [25] was cultured in RPMI1640 medium. […]
(§2) The effect of subamolide B on cell viability was mostly evaluated using CellTiter 96 AQueous Non-Radioactive Cell Proliferation Assay (MTS assay) kit (Promega, Madison, WI, USA) as previously described. […]
(§3) Figure 1 Cytotoxic effect of subamolide B on human skin cancer cell lines. […] 14 days later, the extent of subamolide B-mediated repression of SCC12 colony formation was evaluated by the numbers of colonies grown on culture dishes. […] (c) Quantitative analysis of subamolide B-mediated repression of SCC12 colony formation. The numbers of colonies shown in (b) were counted and the results were presented as the percentage of drug-treated groups compared to the drug-free controls. ***P < 0.001.

[3] = test system: A-431 (epidermoid carcinoma) cells; experiment: Cell viability determination via MTS assay, A-431; format: cell-based; conditions: Homo sapiens; A-431, 48 h treatment; read-out: IC50 (reduce cell viability by 50%)
Protocol: as §1, §2, §3

[4] = test system: BCC-1/KMC (basal cell carcinoma) cells; experiment: Cell viability determination via MTS assay, BCC-1/KMC; format: cell-based; conditions: Homo sapiens, BCC1, 48 h treatment, read-out: IC50 (reduce cell viability by 50%)
Protocol: as §1, §2, §3

[5] = test system: SCC12 (cutaneous squamous cell carcinoma) cells; experiment: Cell viability determination via MTS assay, SCC12; format: cell-based; conditions: Homo sapiens; SCC12, 48 h treatment; read-out: IC50 (reduce cell viability by 50%)
Protocol: as §1, §2, §3

[6] = test system: CCD-966SK normal skin fibroblasts; experiment: Cell viability determination via MTS assay, CCD-966SK; format: cell-based; conditions: Homo sapiens, Skin fibroblast, 48 h treatment, read-out: IC50 (reduce cell viability by 50%)
Protocol: as §1, §2, §3

[7] = test system: WS1 normal skin fibroblasts; experiment: Cell viability determination via MTS assay, WS1; format: cell-based; conditions: Homo sapiens, Skin fibroblast; WS1, 48 h treatment; read-out: IC50 (reduce cell viability by 50%)
Protocol: as §1, §2, §3

[8] = test system: IMR-90 normal lung fibroblasts; experiment: Cell viability determination via MTS assay, IMR-90; format: cell-based; conditions: Homo sapiens; IMR-90, 48 h treatment; read-out: IC50 (reduce cell viability by 50%)
Protocol: as §1, §2, §3

[9] = test system: MRC-5 normal lung fibroblasts; experiment: Cell viability determination via MTS assay, MRC-5; format: cell-based; conditions: Homo sapiens, MRC5; MRC-5, 48 h treatment; read-out: IC50 (reduce cell viability by 50%)
Protocol: as §1, §2, §3

[10] = test system: WI-38 normal lung fibroblasts; experiment: Cell viability determination via MTS assay, WI-38; format: cell-based; conditions: Homo sapiens; WI-38, 48 h treatment; read-out: IC50 (reduce cell viability by 50%)
Protocol: as §1, §2, §3

[11] = test system: SCC12 cells; experiment: Colony formation assay; format: cell-based, human; conditions: 24 h treatment, then drug-free media 14 days
Protocol: The effect of subamolide B on the long-term survival of SCC12 cells was assessed using colony formation assay in accordance with the reported procedure. […] […] The colonies composed of 50 or more cells were counted under microscopy. At least three independent assays were performed to calculate the numbers of colonies for statistical analysis.
Figure 1 Cytotoxic effect of subamolide B on human skin cancer cell lines. (a) Dose-dependent cytotoxicity of subamolide B. Human skin cancer cell lines, including A375 (melanoma), A-431 (epidermoid carcinoma), BCC-1/KMC (basal cell carcinoma) and SCC12 (cutaneous squamous cell carcinoma), normal human skin fibroblast cell lines CCD-966SK and WS1, and normal human lung fibroblast cell lines IMR-90, MRC-5, and WI-38 were treated with graded doses of subamolide B (0~20 μM), followed by cell viability determination via MTS assay as described in Section 2. […] 14 days later, the extent of subamolide B-mediated repression of SCC12 colony formation was evaluated by the numbers of colonies grown on culture dishes. […] (c) Quantitative analysis of subamolide B-mediated repression of SCC12 colony formation. The numbers of colonies shown in (b) were counted and the results were presented as the percentage of drug-treated groups compared to the drug-free controls. ***P < 0.001.

[12] = test system: SCC12 cells; experiment: Annexin-V/propidium iodide dual staining assay (flow cytometry); format: cell-based, human; conditions: subamolide B 20 μM, 24 h
Protocol: Annexin V/PI dual staining assay was employed to determine the involvement of apoptosis in subamolide B-induced cell death, using ApoTarget Annexin-V-FITC Apoptosis kit (Biosource, Camarillo, CA, USA) as described previously. If required, the pan-caspase inhibitor z-VAD-fmk (20 μM) was added to SCC12 cells 2 h before subamolide B treatment.
Figure 2 Apoptosis is partly responsible for subamolide B-induced SCC12 cell death. ((a), (b)) Subamolide B induces dose- and time-dependent proteolytic processing/activation of caspases-8, -9, -4, and -3. […] Subamolide B (20 μM) was used to treat SCC12 cells for 24 h without or with cotreatment of the pan-caspase inhibitor z-VAD-fmk (20 μM). […] The levels of apoptotic cells were indicated as the percentage of all cell populations as shown in (d). ***P < 0.001. […]

[13] = test system: ATF6 transcriptional activity; experiment: ATF6 transcriptional activity luciferase reporter assay (p5xATF6-GL3); format: cell-based; conditions: Homo sapiens, SCC12 cells, 24 h, vs drug-untreated control
Description: The ATF6 activity reporter plasmid p5xATF6-GL3 (Addgene plasmid 11976) carries five ATF6 response elements in tandem to drive the expression of firefly luciferase. The human CHOP promoter, which encompasses the region between −947 and +30 (+1 is the transcriptional start site) was PCR-amplified from the genomic DNA of peripheral blood mononuclear cells using the primer pair 5′-[…]-3′ (forward) and 5′-[…]-3′ (reverse). The 978-bp fragment was cloned into the luciferase reporter plasmid pGL4.18 vector (Promega, Madison, WI, USA) to generate the human CHOP promoter reporter plasmid (pCHOP-Luc). Luciferase activity assay was performed using Dual-Luciferase Reporter assay kit (Promega, Madison, WI, USA) as reported previously. Luciferase activity was normalized to Renilla luciferase activity, and final results were expressed as fold induction of the luciferase activity after subamolide B stimulation compared to that of drug-untreated control.
Figure 5 Subamolide B is an ER stress inducer. (a) Subamolide B upregulates signature ER stress markers GRP78 and CHOP. […] The level of CHOP mRNA in SCC12 cells after 24 h treatment with subamolide B (0~20 μM) was assessed by semiquantitative RT-PCR analysis. β-actin was used as the loading control. […] ATF6 transcriptional activity was then evaluated by luciferase activity assay. […]

IC50 [2]	IC50 [3]	IC50 [4]	IC50 [5]	Structure (SMILES)	viability at 50 µg/mL ([1]; SCC12, imiquimod 50 μg/ml, 24 h, read-out: SCC12 cell viability, % of the drug-untreated control)	IC50 [6]	IC50 [7]	IC50 [8]	IC50 [9]	IC50 [10]	SCC12 colony formation, % of the drug-untreated control ([11]; 10 μM)	SCC12 colony formation, % of the drug-untreated control ([11]; 20 μM)	level of apoptotic cells (percentage of all cell populations) ([12]; cotreated with z-VAD-fmk 20 μM)	level of apoptotic cells (percentage of all cell populations) ([12]; without z-VAD-fmk)	fold induction at 10 µM [13]	viability at 20 µM ([1]; SCC12, subamolide B 20 μM (6.897 μg/ml), 24 h, read-out: SCC12 cell viability, % of the drug-untreated control)	IC50 ([1]; SCC12, 24 h treatment, read-out: IC50 (SCC12 cytotoxicity))
–	–	–	–	CC(C)Cn1cnc2c(N)nc3ccccc3c21 [imiquimod, reference compound]	65 ± 4.32%	–	–	–	–	–	–	–	–	–	–	–	–
17.6 µM	13.3 µM	> 20 µM	9.12 µM	CCCCCCCCCCCCC/C=C1/C(=O)O[C@@](C)(OC)[C@@H]1O [subamolide B, (3E,4R,5R)-3-tetradecylidene-4-hydroxy-5-methoxy-5-methyl-butanolide]	–	> 20 µM	> 20 µM	> 20 µM	> 20 µM	> 20 µM	58.93 ± 2.40%	28.20 ± 10.87%	18.6 ± 0.42%	32.55 ± 3.65%	16.1 ± 2.06	50.5 ± 5.89%	6.9 µg/mL and 20.3 µM
